Holding throughout (assay): relative viability (nuclei count vs DMSO), 5 days (fraction); higher = more cells survive
Compound in the assay “Erlotinib + Luminespib”: C#Cc1cccc(Nc2ncnc3cc(OCCOC)c(OCCOC)cc23)c1 [Erlotinib] + CCNC(=O)c1noc(-c2cc(C(C)C)c(O)cc2O)c1-c1ccc(CN2CCOCC2)cc1 [Luminespib] (partner 0.01 µM)
The procedure, abridged:
(§1)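 Lung cancer cell lines were seeded in 1536-well plates and dosed by pin tool the next day, with either a single drug or a fixed anchor-drug dose combined with five library-drug doses (not always all listed) spaced in √10 steps. Five days later, one step fixed the cells and stained their nuclei (final 0.05% Triton X-100, 1% formaldehyde, 1 ug/ml Hoechst), and nuclei were counted on 4× images. Relative viability is the nuclei count in treated wells divided by the count in vehicle wells, and each value is the median of duplicate plates.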

Compound in the assay “Erlotinib + Decitabine”: C#Cc1cccc(Nc2ncnc3cc(OCCOC)c(OCCOC)cc23)c1 [Erlotinib] + Nc1ncn([C@H]2C[C@H](O)[C@@H](CO)O2)c(=O)n1 [Decitabine] (partner 2 µM)
The procedure, abridged: as §1

Compound in the assay “AT9283 + Foretinib”: O=C(Nc1c[nH]nc1-c1nc2ccc(CN3CCOCC3)cc2[nH]1)NC1CC1 [AT9283] + COc1cc2c(Oc3ccc(NC(=O)C4(C(=O)Nc5ccc(F)cc5)CC4)cc3F)ccnc2cc1OCCCN1CCOCC1 [Foretinib] (partner 0.25 µM)
An outline of the steps:
as §1

Compound in the assay “AT9283 + Dasatinib”: O=C(Nc1c[nH]nc1-c1nc2ccc(CN3CCOCC3)cc2[nH]1)NC1CC1 [AT9283] + Cc1nc(Nc2ncc(C(=O)Nc3c(C)cccc3Cl)s2)cc(N2CCN(CCO)CC2)n1 [Dasatinib] (partner 0.075 µM)
An outline of the steps:
as §1

Compound in the assay “AT9283 + Trametinib”: O=C(Nc1c[nH]nc1-c1nc2ccc(CN3CCOCC3)cc2[nH]1)NC1CC1 [AT9283] + CC(=O)Nc1cccc(-n2c(=O)n(C3CC3)c(=O)c3c(Nc4ccc(I)cc4F)n(C)c(=O)c(C)c32)c1 [Trametinib] (partner 0.02 µM)
The procedure, abridged:
as §1

For the cell line NCI-H441, the relative viability was found to be 0.259 with Erlotinib + Luminespib (first compound 0.02 µM); 0.32 with Erlotinib + Luminespib (first compound 0.2 µM); 0.345 in the assay with Erlotinib + Luminespib (first compound 0.6325 µM); 0.345 with Erlotinib + Luminespib (first compound 2 µM); 0.232 with Erlotinib + Decitabine (first compound 0.02 µM); 0.26 with Erlotinib + Decitabine (first compound 0.2 µM). Besides, the relative viability with Erlotinib + Decitabine (first compound 0.6325 µM) came out at 0.215; in the assay with Erlotinib + Decitabine (first compound 2 µM) it was 0.257; with AT9283 + Foretinib (first compound 0.003 µM), 1.02; in the assay with AT9283 + Foretinib (first compound 0.03 µM), 0.847; in the assay with AT9283 + Foretinib (first compound 0.09487 µM), 0.396; with AT9283 + Foretinib (first compound 0.3 µM), 0.301. Besides, the relative viability was 0.567 with AT9283 + Dasatinib (first compound 0.003 µM); 0.49 with AT9283 + Dasatinib (first compound 0.03 µM); 0.318 in the assay with AT9283 + Dasatinib (first compound 0.09487 µM); 0.209 with AT9283 + Dasatinib (first compound 0.3 µM); 0.259 with AT9283 + Trametinib (first compound 0.003 µM); 0.439 with AT9283 + Trametinib (first compound 0.03 µM). The relative viability stood at 0.423 with AT9283 + Trametinib (first compound 0.09487 µM) and 0.22 with AT9283 + Trametinib (first compound 0.3 µM).
